Converted amounts (≈) assume the structure as drawn.
Columns and labels:
Type in all cases: cell-based
Streptococcus pyogenes A = assay: Minimum inhibition concentration (MIC), Table 3; details: Germ: Streptococcus pyogenes A; read-out: Minimum inhibition concentration MIC
Description: Minimum inhibition concentration MIC in γ/ml
Germ: Streptococcus pyogenes A

[1] = system: Staphylococcus aureus SG 511; assay: Minimum inhibition concentration (MIC), Table 5; details: Staphylococcus aureus, SG511, Germ: Staphylococcus aureus SG 511; read-out: Minimum inhibition concentration (MIC)
Description: (§1) Minimum inhibition concentration (MIC) in γ/ml
Germ: Staphylococcus aureus SG 511

Proteus mirabilis = assay: Minimum inhibition concentration (MIC), Table 2; details: Germ: Proteus mirabilis; read-out: Minimum inhibition concentration (MIC)
Description: Minimum inhibition concentration (MIC) in /ml

Streptococcus D = assay: Minimum inhibition concentration (MIC), Table 4; details: Streptococcus, Germ: Streptococcus D; read-out: Minimum inhibition concentration (MIC)
Description: as §1

[2] = system: Staphylococcus aureus 285; assay: Minimum inhibition concentration (MIC), Table 1; details: Staphylococcus aureus, 285, Germ: Staphylococcus aureus 285; read-out: Minimum inhibition concentration (MIC)
Description: as §1
Germ: Staphylococcus aureus 285

Compound	MIC (Streptococcus pyogenes A)	MIC [1]	MIC (Proteus mirabilis)	MIC (Streptococcus D)	MIC [2]
Cc1nnc(SCC2=C(C(=O)O)N3C(=O)C(NC(=O)Cc4ccc(C(=N)N)cc4)C3SC2)o1 (centres unmarked) [Example 60, 3-[(5-methyl-1,3,4-oxadiazole-2-yl)-thiomethyl]-7-(4-amidinophenylacetamido)-Δ 3-cephem-4-carboxylic acid]	0.000391 to 0.0078 µg/mL (≈ 0.0008 to 0.016 µM)	0.0625 to 0.078 µg/mL (≈ 0.128 to 0.16 µM)	3.1 to 12.5 µg/mL (≈ 6.35 to 25.6 µM)	10 to 50 µg/mL (≈ 20.5 to 102 µM)	0.5 to 1.25 µg/mL (≈ 1.02 to 2.56 µM)
O=C(Cc1ccc(C2=NCCN2)cc1)NC1C(=O)N2C(C(=O)O)=C(CSc3nc4ccccc4s3)CSC12 (centres unmarked) [Example 118, 3-[(benzothiazole-2-yl)-thiomethyl]-7-[4-(imidazoline-2-yl)-phenylacetamido]-Δ3-cephem-4-carboxylic acid]	0.000391 to 0.0078 µg/mL (≈ 0.000691 to 0.0138 µM)	0.0625 to 0.078 µg/mL (≈ 0.11 to 0.138 µM)	25 µg/mL (≈ 44.2 µM)	0.196 to 6.25 µg/mL (≈ 0.346 to 11 µM)	0.156 to 0.391 µg/mL (≈ 0.276 to 0.691 µM)
N=C(N)Nc1ccc(CC(=O)NC2C(=O)N3C(C(=O)O)=C(CSc4nncs4)CSC23)cc1 (centres unmarked) [Example 9, 3-[(1,3,4-thiadiazole-2-yl)-thiomethyl]-7-(4-guanidino-phenylacetamido)-Δ3-cephem-4-carboxylic acid]	0.000391 to 0.0078 µg/mL (≈ 0.000773 to 0.0154 µM)	0.0196 to 0.0391 µg/mL (≈ 0.0388 to 0.0773 µM)	25 µg/mL (≈ 49.4 µM)	10 to 50 µg/mL (≈ 19.8 to 98.9 µM)	0.5 to 1.25 µg/mL (≈ 0.989 to 2.47 µM)
Cn1nnnc1SCC1=C(C(=O)O)N2C(=O)C(NC(=O)Cc3ccc(C(=N)N)cc3)C2SC1 (centres unmarked) [Example 89, 3-[(1-methyl-1H-tetrazole-5-yl)-thiomethyl]-7-[4-amidino-phenylacetamido]-Δ 3-cephem-4-carboxylic acid]	0.008 to 0.0156 µg/mL (≈ 0.0164 to 0.0319 µM)		3.1 to 12.5 µg/mL (≈ 6.35 to 25.6 µM)	10 to 50 µg/mL (≈ 20.5 to 102 µM)	0.156 to 0.391 µg/mL (≈ 0.319 to 0.8 µM)
O=C(Cc1ccc(C2=NCCCN2)cc1)NC1C(=O)N2C(C(=O)O)=C(CSc3nncs3)CSC12 (centres unmarked) [Example 19, 3-[(1,3,4-thiadiazole-2-yl)-thiomethyl]-7-[4-(1,4,5,6-tetrahydropyrimide-2-yl)-phenylacetamido]-Δ 3-cephem-4-carboxylic acid]	0.000391 to 0.0078 µg/mL (≈ 0.000737 to 0.0147 µM)		3.1 to 12.5 µg/mL (≈ 5.84 to 23.6 µM)	10 to 50 µg/mL (≈ 18.8 to 94.2 µM)	0.5 to 1.25 µg/mL (≈ 0.942 to 2.36 µM)

Second part, the compound after the results:

MIC (Streptococcus pyogenes A)	MIC [1]	MIC (Proteus mirabilis)	MIC (Streptococcus D)	MIC [2]	Compound
0.000391 to 0.0078 µg/mL (≈ 0.0007 to 0.014 µM)	0.0625 to 0.078 µg/mL (≈ 0.112 to 0.14 µM)	25 µg/mL (≈ 44.7 µM)	0.196 to 6.25 µg/mL (≈ 0.351 to 11.2 µM)	0.5 to 1.25 µg/mL (≈ 0.895 to 2.24 µM)	CCCc1nnc(SCC2=C(C(=O)O)N3C(=O)C(NC(=O)Cc4ccc(C5=NCCN5)cc4)C3SC2)s1 (centres unmarked) [Example 53]
0.000391 to 0.0078 µg/mL (≈ 0.000734 to 0.0146 µM)	0.0196 to 0.0391 µg/mL (≈ 0.0368 to 0.0734 µM)	3.1 to 12.5 µg/mL (≈ 5.82 to 23.5 µM)	10 to 50 µg/mL (≈ 18.8 to 93.9 µM)	0.156 to 0.391 µg/mL (≈ 0.293 to 0.734 µM)	CCCc1nnc(SCC2=C(C(=O)O)N3C(=O)C(NC(=O)Cc4ccc(C(=N)N)cc4)C3SC2)s1 (centres unmarked) [Example 58, 3-[(5-n-propyl-1,3,4-thiadiazole-2-yl)-thiomethyl]-7-(4-amidinophenylacetamido)-Δ 3-cephem-4-carboxylic acid]
0.000391 to 0.0078 µg/mL (≈ 0.000757 to 0.0151 µM)	0.0625 to 0.078 µg/mL (≈ 0.121 to 0.151 µM)	3.1 to 12.5 µg/mL (≈ 6 to 24.2 µM)	0.196 to 6.25 µg/mL (≈ 0.379 to 12.1 µM)	0.156 to 0.391 µg/mL (≈ 0.302 to 0.757 µM)	O=C(Cc1ccc(C2=NCCN2)cc1)NC1C(=O)N2C(C(=O)O)=C(CSc3nncs3)CSC12 (centres unmarked) [Example 70, 3-[(1,3,4-thiadiazole-2-yl)-thiomethyl]-7-[4-(imidazoline-2-yl)phenylacetamido]-Δ 3-cephem-4-carboxylic acid]
0.008 to 0.0156 µg/mL (≈ 0.016 to 0.0312 µM)		3.1 to 12.5 µg/mL (≈ 6.19 to 25 µM)	10 to 50 µg/mL (≈ 20 to 99.9 µM)	0.5 to 1.25 µg/mL (≈ 0.999 to 2.5 µM)	O=C(Cc1ccc(C2=NCCN2)cc1)NC1C(=O)N2C(C(=O)O)=C(CSc3nnco3)CSC12 (centres unmarked) [Example 124, 3-[(1,3,4-oxadiazole-2-yl)-thiomethyl]-7-[4-(imidazoline-2-yl)-phenylacetamido]-Δ 3-cephem-4-carboxylic acid]
0.000391 to 0.0078 µg/mL (≈ 0.000757 to 0.0151 µM)		3.1 to 12.5 µg/mL (≈ 6 to 24.2 µM)	10 to 50 µg/mL (≈ 19.4 to 96.8 µM)	0.156 to 0.391 µg/mL (≈ 0.302 to 0.757 µM)	CCCc1nnc(SCC2=C(C(=O)O)N3C(=O)C(NC(=O)Cc4ccc(C(=N)N)cc4)C3SC2)o1 (centres unmarked) [Example 44, 3-[(5-n-propyl-1,3,4-oxadiazole-2-yl)-thiomethyl]-7-(4-amidino-phenylacetamido)-Δ 3-cephem-4-carboxylic acid]
0.000391 to 0.0078 µg/mL (≈ 0.000747 to 0.0149 µM)		25 µg/mL (≈ 47.7 µM)	10 to 50 µg/mL (≈ 19.1 to 95.5 µM)	1.6 to 2.5 µg/mL (≈ 3.06 to 4.77 µM)	O=C(Cc1ccc(C2=NCCCN2)cc1)NC1C(=O)N2C(C(=O)O)=C(CSc3ccncc3)CSC12 (centres unmarked) [Example 97, 3-(4-pyridyl-thiomethyl)-7-[4-(1,4,5,6-tetrahydropyrimide-2-yl)-phenylacetamido]-Δ3-cephem-4-carboxylic acid]

Source: patent US4016159A, “Acylamino-cephem-carboxylic acids containing an amidino or guanidino group in the molecule” (Hoechst Aktiengesellschaft, priority 1973, dated 1977)
